Key:
skin of SKH-1 mice [1] = assay: ELISA of UV-B induced DNA damage (CPD, 64 pp) in back skin DNA of SKH-1 mice; assay type: in vivo; details: topical 10 μmol/mouse before 180 mJ/cm^2 UV-B, 14-day experiment
From the text: FIGS. 3A and 3B depict the manner in which pterostilbene prevents UV-B induced DNA damage in the skin of SKH-1 mice, namely (A) CPD or (B) 64 pp DNA damage. ELISAs are shown for different arms of mouse study (Abs. 492 nm). * indicates p<0.01 as compared with vehicle (VEH). (RES) is resveratrol and (PTERO) is pterostilbene. NS is not significant.
(§1) UV-B exposure. Mice were exposed to a single dose of 180 mJ/cm^2 UVB radiation delivered via broadband UVB lamps (TL 40 W/12 RS; Philips) emitting 290-350 nm light with a peak emission at 312 nm. The irradiance was measured using a thermopile sensor (818P-001-12; Newport Inc., Irvine, Calif.) and power meter (842-PE; Newport Inc.).
ELISAS. DNA was isolated from snap frozen whole back skin using Qiagen QIAamp Blood mini kit (cat #51104) per manufacturer's instructions. ELISAs were performed on purified DNA with anti-CPD (clone TDM2) and anti-64 PP (clone 64M-2) antibodies using manufacturer's protocol and read using a DTX 800 Multimode Detector plate reader (Beckman Coulter) using standard settings from colorimetric detection. Four technical replicates were used and DNA-free wells were used as negative control.
Hairless SKH-1 mice were used to evaluate the effectiveness of pterostilbene at preventing UV-mediated damage in skin. The SKH-1 model is ideally suited for this purpose and is commonly used in preclinical studies and yielded valuable results. […] To ascertain if pterostilbene could also prevent those molecular alterations, we replicated these experiments. […] For all topical treatments 200 μl total volume was applied to the back skin of the mouse. For acetone group, 200 μl of acetone was applied. […] These mice were treated every 2 days for 7 total treatments. […] 24 hrs after last treatment, mice were euthanized, skin bi-fold measurements taken and back skins collected. As shown in FIGS. 2 and 3A-B, pterostilbene prevented UV-B-induced damage in mouse skin. […] This prevention of visual skin damage by pterostilbene correlated nicely with the prevention of DNA damage. […] Therefore pterostilbene prevented the 2 major types of UV-induced DNA damage (CPD and 64 pp) in the skin of SKH-1 mice.
DNA was obtained from the back skin of the SKH-1 mice from the experiment above after completion of the 14-day experiment. This DNA was then examined for DNA damage (both CPD and 64 pp) quantitatively using ELISA as previously described (Nishiwaki, Y., et al., “Trichothiodystrophy fibroblasts are deficient in the repair of ultraviolet-induced cyclobutane pyrimidine dimers and (6-4) photoproducts,” J. Invest. Dermatol. (2004) 122: 526-32). […] Quantification of DNA damage was measured at 492 nm by a spectrophotometer.

skin of SKH-1 mice [2] = assay: UV-B induced visual skin damage (redness) in SKH-1 mice, topical treatment; assay type: in vivo; details: topical 10 μmol/0.2 ml acetone/mouse 30 min before 180 mJ/cm^2 UV-B, every 2 days, 7 treatments, 5 mice per group
Description: FIG. 2 depicts the manner in which pterostilbene prevents UV-B induced damage in the skin of SKH-1 mice. […] Photographs show representative mice after 4th treatment.
as §1
Hairless SKH-1 mice were used to evaluate the effectiveness of pterostilbene at preventing UV-mediated damage in skin. The SKH-1 model is ideally suited for this purpose and is commonly used in preclinical studies and yielded valuable results. […] To ascertain if pterostilbene could also prevent those molecular alterations, we replicated these experiments. […] For all topical treatments 200 μl total volume was applied to the back skin of the mouse. For acetone group, 200 μl of acetone was applied. […] These mice were treated every 2 days for 7 total treatments. […] 24 hrs after last treatment, mice were euthanized, skin bi-fold measurements taken and back skins collected. As shown in FIGS. 2 and 3A-B, pterostilbene prevented UV-B-induced damage in mouse skin. […] This prevention of visual skin damage by pterostilbene correlated nicely with the prevention of DNA damage. […]

[3] = cited from earlier work; for bioavailability: in vivo
[4] = rats, relative to resveratrol; cited from earlier work
[5] = In vitro glucuronidation assay with pooled human liver microsomes; assay type: in vitro ADME; details: 100 μg pooled human liver microsomes (n=20), 500 μM compound, HPLC 308 nm
skin of SKH-1 mice [6] = assay: UV-B mediated bi-fold skin thickening and hyperplasia (H&E) in SKH-1 mice; assay type: in vivo; details: topical 10 μmol/mouse before 180 mJ/cm^2 UV-B
Description: FIG. 3C depicts the manner in which pterostilbene prevents UV-mediated bi-fold skin thickening. Bi-fold skin measurements (mm) were made using a digital caliper. At least three measurements for each mouse were taken along the back.
FIG. 4 depicts the manner in which pterostilbene prevents UV-mediated hyperplasia. H&E stains of back skins from mice in the indicated treatment arms (i.e., UV-B treated and control) were performed.
as §1
Hairless SKH-1 mice were used to evaluate the effectiveness of pterostilbene at preventing UV-mediated damage in skin. The SKH-1 model is ideally suited for this purpose and is commonly used in preclinical studies and yielded valuable results. […] To ascertain if pterostilbene could also prevent those molecular alterations, we replicated these experiments. […] For all topical treatments 200 μl total volume was applied to the back skin of the mouse. For acetone group, 200 μl of acetone was applied. […] These mice were treated every 2 days for 7 total treatments. […]

[7] = 125 mg orally twice a day, human; cited from earlier work
mouse epidermis = details: cited from earlier work

Row | extent of metabolism (glucuronidation) after 2 hours [5] | Compound | 64 pp DNA damage by ELISA (Abs. 492 nm) (skin of SKH-1 mice [1]) | CPD DNA damage by ELISA (Abs. 492 nm) (skin of SKH-1 mice [1]) | redness (sunburn) on back skin (skin of SKH-1 mice [2]) | half life t1/2 in blood [3] | bioavailability [3] | increased bioavailability versus resveratrol [4] | UV-mediated bi-fold skin thickening (skin of SKH-1 mice [6]; digital caliper on dorsal skin, versus vehicle+UV-B) | UV-mediated hyperplasia (H&E stain of back tissue) (skin of SKH-1 mice [6]; formalin fixed paraffin embedded back tissue) | overall blood pressure [7] | toxicity in patients [7] | COX-2 activation and TPA-induced tumor formation in mouse epidermis in vivo (mouse epidermis; 12-O-tetradecanoylphorbol-13-acetate (TPA), mouse epidermis in vivo) | potency versus resveratrol in inhibition of NF-KB, AP-1 and iNOS activation in mouse skin (mouse epidermis; mouse skin)
1 |  | Oc1ccc(C=Cc2cc(O)cc(O)c2)cc1 [resveratrol, reference compound] | no 64 pps are observed | quantitatively detected above background | able to limit the amount of redness observed on the back, it did not prevent it | about 14 minutes | poor bioavailability |  |  |  |  |  |  | 
2 | 20% | COc1cc(/C=C/c2ccc(O)cc2)cc(OC)c1 [pterostilbene, 3,5-dimethoxy-4′-hydroxy-trans-stilbene] | no 64 pps are observed | no CPDs were detected | no redness was observed on any of the 5 mice | about 105 minutes | orally bioavailable | 5 fold | prevented UV-mediated bi-fold skin thickening | prevented UV-mediated hyperplasia at the cellular level | reduction in overall blood pressure was observed | no toxicity reported | prevent COX-2 activation and 12-O-tetradecanoylphorbol-13-acetate (TPA)-induced tumor formation | equally or significantly more potent than resveratrol
